Assay results as given in patent publication US20240366598A1, “GLUCOSE-DEPENDENT INSULINOTROPIC POLYPEPTIDE RECEPTOR ANTAGONISTS AND USES THEREOF” (Pfizer Inc., priority 2023, published 2024).

Molecular target: T1, human Glucose-dependent Insulinotropic Polypeptide Receptor (hGIPR) (Homo sapiens, UniProt P48546)
T1 sequence (P48546 22-466): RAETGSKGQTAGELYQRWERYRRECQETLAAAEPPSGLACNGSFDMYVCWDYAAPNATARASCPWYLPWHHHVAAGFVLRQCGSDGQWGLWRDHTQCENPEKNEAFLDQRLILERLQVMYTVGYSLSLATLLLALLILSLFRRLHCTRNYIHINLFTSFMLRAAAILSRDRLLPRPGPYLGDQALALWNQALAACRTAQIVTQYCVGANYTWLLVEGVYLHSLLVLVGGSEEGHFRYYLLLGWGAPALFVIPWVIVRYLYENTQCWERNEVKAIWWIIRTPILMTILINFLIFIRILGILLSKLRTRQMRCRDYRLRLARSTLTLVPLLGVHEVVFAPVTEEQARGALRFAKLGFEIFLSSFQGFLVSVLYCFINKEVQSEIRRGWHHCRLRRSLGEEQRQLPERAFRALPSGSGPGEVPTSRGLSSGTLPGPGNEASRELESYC
Experiment: Functional in vitro GIPR antagonist potency assay (cAMP HTRF, CHO-K1 cells stably expressing hGIPR, hGIP stimulation at about EC80)
Assay type: cell-based
Settings: geometric mean, hGIP at estimated EC80, examples marked ^2: overall geometric mean of multiple forms (including salts) tested
Description: Example AA. Functional In Vitro GIPR Antagonist Potency Assay
The functional in vitro antagonist potency for test compounds was determined by monitoring intracellular cyclic adenosine monophosphate (cAMP) levels in Chinese hamster ovary (CHO)—K1 cells stably expressing the human Glucose-dependent Insulinotropic Polypeptide Receptor (hGIPR). Following agonist activation, hGIPR associates with the G-protein complex causing the Gαs subunit to exchange bound guanosine diphosphate (GDP) for guanosine triphosphate (GTP), followed by dissociation of the Gαs-GTP complex. The activated Gas subunit can couple to downstream effectors to regulate the levels of second messengers or cAMP within the cell. Thereby, determination of intracellular cAMP levels allows for pharmacological characterization. Intracellular cAMP levels are quantitated using a homogenous assay utilizing the Homogeneous Time Resolved Fluorescence (HTRF) technology from Perkin Elmer. […] The two entities compete for binding to a monoclonal anti-cAMP antibody labeled with cryptate. The specific signal is inversely proportional to the concentration of cAMP in the cells.
Test compounds were solubilized to a concentration of 30 mM in 100% dimethyl sulfoxide (DMSO). An 11-point dilution series using 1 in 3.162-fold serial dilutions was created in 100% DMSO with a top concentration of 8 mM. The serially diluted compound was spotted with an Echo Acoustic liquid handler (Beckman Coulter) into a 384-well assay plate (Corning, Cat No. 3824) at 50 nL/well with duplicate points at each concentration, at a 200× final assay concentration (FAC). The final compound concentration range in the assay was 40 μM to […], with a final DMSO concentration of 0.5%.
Frozen assay-ready vials (at 1×10^7 cells/vial) of CHO-K1 cells stably expressing the Gs-coupled human GIPR receptor (Eurofins, DiscoverX, Cat No. 95-0146C2) were thawed, counted, and resuspended in assay buffer consisting of Hank's Balanced Salt Solution (HBSS, Lonza Cat No. 10-527) containing 20 mM (4-(2-hydroxyethyl)-1-piperazineethanesulfonic acid (HEPES, Lonza, Cat No. 17-737E), 0.1% bovine serum albumin (BSA, Sigma, Cat No. A7979), and 200 μM 3-isobutyl-1-methylxanthine (IBMX, Sigma, Cat No. 15879) at a density of 4×10^5 cells/mL. Cells were added to assay plate (5 μL/well of 4×10^5 cells/mL stock for 2,000 cells/well final) containing 50 nL of 200× FAC test compound, and incubated at 37° C. (95% O2: 5% CO2) for 2 hours, with micro-clime lids (Labcyte, Cat No. LLS-0310). Following the 2-hour cell and compound incubation, a stimulation mix comprised of hGIPR agonist human glucose-dependent insulinotropic polypeptide (hGIP, full length, Sigma Cat No. G2269) in assay buffer/0.1% DMSO was added to the assay plate (5 μL/well) at an estimated EC80 FAC (based on previous hGIP agonist curves) and incubated for another 30 minutes with micro-clime lids at 37° C. (95% O2: 5% CO2), after which intracellular cAMP levels were quantified as per Perkin Elmer's protocol (5 μL of d2 and then 5 μL cryptate, incubated for 1 hour at room temperature). Emission spectra of samples were measured on a Pherastar plate reader (BMG Labtech Inc) using a HTRF protocol (excitation, 320 nm; emission, 665 nm/620 nm).
(95% O2: 5% CO2), with a micro-clime lid. Following the 2-hour cell and DMSO incubation, a hGIP concentration response curve at 2× FAC (12-point curve using 1 in 3 serial dilutions, with triplicate points at each concentration, 100 nM final top concentration) in assay buffer/1% DMSO was added (5 μL/well) and incubated for a further 30 minutes with a micro-clime lid at 37° C. (95% O2: 5% CO2), after which intracellular cAMP levels were quantified and samples measured as described previously. Experiments passed quality control if the agonist concentration used for stimulation fell between the on-the-day EC50-EC90. […]

SMILES	IC50
Cc1cc(NC(=O)N2CCC[C@@H]2C(=O)Nc2ccc(-c3ccc(C(=O)O)nc3)cc2)ccc1C(C)C [Example 19, 5-{4-[(1-{[3-Methyl-4-(propan-2-yl)phenyl]carbamoyl}-D-prolyl)amino]phenyl}pyridine-2-carboxylic acid]	0.011 µM
Cc1nc(C(=O)O)ccc1-c1ccc(NC(=O)[C@H]2CCCN2C(=O)Nc2ccc(C(C)C)cc2)cc1 [Example 20, 6-Methyl-5-{4-[(1-{[4-(propan-2-yl)phenyl]carbamoyl}-D-prolyl)amino]phenyl}pyridine-2-carboxylic acid]	0.012 µM
COc1cc(-c2ccc(NC(=O)[C@H]3CCCN3C(=O)Nc3ccc(C(C)C)cc3)cc2)ccc1C(=O)O [Example 21, 3-Methoxy-4′-[(1-{[4-(propan-2-yl)phenyl]carbamoyl}-D-prolyl)amino][1,1′-biphenyl]-4-carboxylic acid]	0.011 µM
O=C(O)c1ccc(-c2ccc(NC(=O)[C@H]3CCCN3C(=O)Nc3ccc(C(F)(F)F)cc3)cn2)cc1 [Example 22, 4-{5-[(1-{[4-(Trifluoromethyl)phenyl]carbamoyl}-D-prolyl)amino]pyridin-2-yl}benzoic acid]	0.062 µM
O=C(O)c1ccc(-c2ccc(NC(=O)[C@H]3CCCN3C(=O)Nc3ccc(C4CCC4)cc3)cc2)cc1 [Example 23, 4′-({1-[(4-Cyclobutylphenyl)carbamoyl]-D-prolyl}amino)[1,1′-biphenyl]-4-carboxylic acid]	0.0027 µM
O=C(O)c1ccc(-c2cnc(NC(=O)[C@H]3CCCN3C(=O)Nc3ccc(C(F)(F)F)cc3)c(F)c2)cc1 [Example 24, 4-{5-Fluoro-6-[(1-{[4-(trifluoromethyl)phenyl]carbamoyl}-D-prolyl)amino]pyridin-3-yl}benzoic acid]	0.11 µM
O=C(O)c1ccc(-c2ccc(NC(=O)[C@H]3CCCN3C(=O)Nc3ccc(C4CC4)c(C(F)(F)F)c3)cc2)cc1 [Example 26, 4′-[(1-{[4-Cyclopropyl-3-(trifluoromethyl)phenyl]carbamoyl}-D-prolyl)amino][1,1′-biphenyl]-4-carboxylic acid]	0.0021 µM
Cc1nc(C(=O)O)ccc1-c1ccc(NC(=O)[C@H]2CCCN2C(=O)Nc2ccc(C(C)C)c(F)c2)cc1 [Example 27, 5-{4-[(1-{[3-Fluoro-4-(propan-2-yl)phenyl]carbamoyl}-D-prolyl)amino]phenyl}-6-methylpyridine-2-carboxylic acid]	0.0048 µM
CC(C)c1ccc(NC(=O)N2CCC[C@@H]2C(=O)Nc2ccc(-c3ccc(C(=O)O)c(F)c3)cc2)cc1 [Example 28, 3-Fluoro-4′-[(1-{[4-(propan-2-yl)phenyl]carbamoyl}-D-prolyl)amino][1,1′-biphenyl]-4-carboxylic acid]	0.01 µM
COc1cc(C(=O)O)ccc1-c1ccc(NC(=O)[C@H]2CCCN2C(=O)Nc2ccc(C(C)C)cc2)cc1 [Example 29, 2-Methoxy-4′-[(1-{[4-(propan-2-yl)phenyl]carbamoyl}-D-prolyl)amino][1,1′-biphenyl]-4-carboxylic acid]	0.017 µM
COc1cc(-c2ccc(NC(=O)[C@H]3CCCN3C(=O)Nc3ccc(C(C)C)c(C)c3)cc2)ccc1C(=O)O [Example 30, 3-Methoxy-4′-[(1-{[3-methyl-4-(propan-2-yl)phenyl]carbamoyl}-D-prolyl)amino][1,1′-biphenyl]-4-carboxylic acid]	0.0057 µM
O=C(O)c1ccc(-c2ccc(NC(=O)[C@H]3CCCN3C(=O)Nc3ccc(C(F)(F)F)cc3)nc2)cc1 [Example 31, 4-{6-[(1-{[4-(Trifluoromethyl)phenyl]carbamoyl}-D-prolyl)amino]pyridin-3-yl}benzoic acid]	0.0078 µM
COc1cc(-c2ccc(NC(=O)[C@H]3CCCN3C(=O)Nc3ccc(C(C)C)c(F)c3)cc2)ccc1C(=O)O [Example 32, 4′-[(1-{[3-Fluoro-4-(propan-2-yl)phenyl]carbamoyl}-D-prolyl)amino]-3-methoxy[1,1′-biphenyl]-4-carboxylic acid]	0.0061 µM
O=C(O)c1cccc(-c2ccc(NC(=O)[C@H]3CCCN3C(=O)Nc3ccc(C4CCC4)cc3)nc2)c1 [Example 38, 3-[6-({1-[(4-Cyclobutylphenyl)carbamoyl]-D-prolyl}amino)pyridin-3-yl]benzoic acid]	0.017 µM
O=C(O)c1ccc(-c2ccc(NC(=O)[C@H]3CCCN3C(=O)Nc3ccc(C4(C(F)(F)F)CC4)cc3)cc2)cc1 [Example 42, ammonium 4′-{[1-({4-[1-(trifluoromethyl)cyclopropyl]phenyl}carbamoyl)-D-prolyl]amino}[1,1′-biphenyl]-4-carboxylate]	0.015 µM

Now from value to compound:

IC50	SMILES
0.086 µM	CC(C)c1ccc(NC(=O)N2CCC[C@@H]2C(=O)Nc2ncc(-c3ccc(C(=O)O)cc3)cc2F)cc1 [Example 25, 4-{5-Fluoro-6-[(1-{[4-(propan-2-yl)phenyl]carbamoyl}-D-prolyl)amino]pyridin-3-yl}benzoic acid]
0.0063 µM	CC(C)c1ccc(NC(=O)N2CCC[C@@H]2C(=O)Nc2cnc(-c3ccc(C(=O)O)cc3)c(F)c2)cc1 [Example 33, 4-{3-Fluoro-5-[(1-{[4-(propan-2-yl)phenyl]carbamoyl}-D-prolyl)amino]pyridin-2-yl}benzoic acid]
0.046 µM	CO[C@@H]1C[C@H](C(=O)Nc2ccc(-c3ccc(C(=O)O)cc3)cc2)N(C(=O)Nc2ccc(C(C)C)cc2)C1 [Example 36, 4′-{[(4R)-4-Methoxy-1-{[4-(propan-2-yl)phenyl]carbamoyl}-D-prolyl]amino}[1,1′-biphenyl]-4-carboxylic acid]
0.058 µM	CC(C)c1ccc([C@H](C)NC(=O)N2CCC[C@@H]2C(=O)Nc2ccc(-c3ccc(C(=O)O)cc3)cc2)cc1 [Example 37, 4′-{[1-({(1S)-1-[4-(Propan-2-yl)phenyl]ethyl}carbamoyl)-D-prolyl]amino}[1,1′-biphenyl]-4-carboxylic acid]
0.0037 µM	Cc1cc(NC(=O)N2CCC[C@@H]2C(=O)Nc2ccc(-c3ccc(C(=O)O)cc3)cc2)ccc1C(C)C [Example 39, ammonium 4′-[(1-{[3-methyl-4-(propan-2-yl)phenyl]carbamoyl}-D-prolyl)amino][1,1′-biphenyl]-4-carboxylate]
0.0073 µM	Cc1cc(-c2ccc(NC(=O)[C@H]3CCCN3C(=O)Nc3ccc(C(C)C)cc3)cc2)ccc1C(=O)O [Example 40, 3-methyl-4′-[(1-{[4-(propan-2-yl)phenyl]carbamoyl}-D-prolyl)amino][1,1′-biphenyl]-4-carboxylic acid]
0.049 µM	Cc1cc(NC(=O)N2CCC[C@@H]2C(=O)Nc2ccc(-c3ccc(C(=O)O)cc3)cc2)ccc1Cl [Example 43, ammonium 4′-({1-[(4-chloro-3-methylphenyl)carbamoyl]-D-prolyl}amino)[1,1′-biphenyl]-4-carboxylate]
